From ChEMBL document CHEMBL4011590, “Structure-activity relationship studies on 3,5-dinitrophenyl tetrazoles as antitubercular agents” (Eur J Med Chem, 2017)

Assays:
[1] = tested on: Mycobacterium tuberculosis; assay: Antimycobacterial activity against Mycobacterium tuberculosis H37Rv CNCTC My 331/88 after 14 days by micromethod; type: functional; conditions: H37Rv CNCTC My 331/88, 336 h
[2] = tested on: Mycobacterium tuberculosis; assay: Antimycobacterial activity against Mycobacterium tuberculosis H37Rv CNCTC My 331/88 after 21 days by micromethod; type: functional; conditions: H37Rv CNCTC My 331/88, 504 h
Mycobacterium avium [3] = assay: Antimycobacterial activity against Mycobacterium avium CNCTC My 330/80 after 14 days by micromethod; type: functional; conditions: CNCTC My 330/80, 336 h
Mycobacterium avium [4] = assay: Antimycobacterial activity against Mycobacterium avium CNCTC My 330/80 after 21 days by micromethod; type: functional; conditions: CNCTC My 330/80, 504 h
Mycobacterium kansasii [5] = assay: Antimycobacterial activity against Mycobacterium kansasii CNCTC My 235/80 after 7 days by micromethod; type: functional; conditions: CNCTC My 235/80, 168 h
Mycobacterium kansasii [6] = assay: Antimycobacterial activity against Mycobacterium kansasii CNCTC My 235/80 after 14 days by micromethod; type: functional; conditions: CNCTC My 235/80, 336 h
Mycobacterium kansasii [7] = assay: Antimycobacterial activity against Mycobacterium kansasii CNCTC My 235/80 after 21 days by micromethod; type: functional; conditions: CNCTC My 235/80, 504 h
Mycobacterium kansasii [8] = assay: Antimycobacterial activity against Mycobacterium kansasii isolate 6509/96 after 7 days by micromethod; type: functional; conditions: isolate 6509/96, 168 h
Mycobacterium kansasii [9] = assay: Antimycobacterial activity against Mycobacterium kansasii isolate 6509/96 after 14 days by micromethod; type: functional; conditions: isolate 6509/96, 336 h
Mycobacterium kansasii [10] = assay: Antimycobacterial activity against Mycobacterium kansasii isolate 6509/96 after 21 days by micromethod; type: functional; conditions: isolate 6509/96, 504 h
CHO-K1 = assay: Cytotoxicity against CHOK1 cells after 24 hrs by MTT assay; type: cell-based; conditions: Cricetulus griseus, CHO-K1, 24 h
Staphylococcus aureus [11] = assay: Antibacterial activity against Staphylococcus aureus ATCC 6538 after 24 hrs by broth microdilution method; type: functional; conditions: ATCC 6538, 24 h
Staphylococcus aureus [12] = assay: Antibacterial activity against Staphylococcus aureus ATCC 6538 after 48 hrs by broth microdilution method; type: functional; conditions: ATCC 6538, 48 h
Staphylococcus aureus [13] = assay: Antibacterial activity against methicillin-resistant Staphylococcus aureus HK5996/08 after 24 hrs by broth microdilution method; type: functional; conditions: HK5996/08, 24 h
Staphylococcus aureus [14] = assay: Antibacterial activity against methicillin-resistant Staphylococcus aureus HK5996/08 after 48 hrs by broth microdilution method; type: functional; conditions: HK5996/08, 48 h
[15] = tested on: Staphylococcus epidermidis; assay: Antibacterial activity against Staphylococcus epidermidis HK6966/08 after 24 hrs by broth microdilution method; type: functional; conditions: HK6966/08, 24 h
[16] = tested on: Staphylococcus epidermidis; assay: Antibacterial activity against Staphylococcus epidermidis HK6966/08 after 48 hrs by broth microdilution method; type: functional; conditions: HK6966/08, 48 h
Enterococcus sp. [17] = assay: Antibacterial activity against Enterococcus sp. HK14365/08 after 24 hrs by broth microdilution method; type: functional; conditions: HK14365/08, 24 h
Enterococcus sp. [18] = assay: Antibacterial activity against Enterococcus sp. HK14365/08 after 48 hrs by broth microdilution method; type: functional; conditions: HK14365/08, 48 h
Escherichia coli [19] = assay: Antibacterial activity against Escherichia coli ATCC 8739 after 24 hrs by broth microdilution method; type: functional; conditions: ATCC 8739, 24 h
Escherichia coli [20] = assay: Antibacterial activity against Escherichia coli ATCC 8739 after 48 hrs by broth microdilution method; type: functional; conditions: ATCC 8739, 48 h
Klebsiella pneumoniae [21] = assay: Antibacterial activity against Klebsiella pneumoniae HK11750/08 after 24 hrs by broth microdilution method; type: functional; conditions: HK11750/08, 24 h
Klebsiella pneumoniae [22] = assay: Antibacterial activity against Klebsiella pneumoniae HK11750/08 after 48 hrs by broth microdilution method; type: functional; conditions: HK11750/08, 48 h
Klebsiella pneumoniae [23] = assay: Antibacterial activity against extended spectrum beta-lactamase producing Klebsiella pneumoniae HK14368/08 after 24 hrs by broth microdilution method; type: functional; conditions: HK14368/08, 24 h
Klebsiella pneumoniae [24] = assay: Antibacterial activity against extended spectrum beta-lactamase producing Klebsiella pneumoniae HK14368/08 after 48 hrs by broth microdilution method; type: functional; conditions: HK14368/08, 48 h
Pseudomonas aeruginosa [25] = assay: Antibacterial activity against Pseudomonas aeruginosa ATCC 9027 after 24 hrs by broth microdilution method; type: functional; conditions: ATCC 9027, 24 h
Pseudomonas aeruginosa [26] = assay: Antibacterial activity against Pseudomonas aeruginosa ATCC 9027 after 48 hrs by broth microdilution method; type: functional; conditions: ATCC 9027, 48 h
Candida albicans [27] = assay: Antifungal activity against Candida albicans ATCC 44859 after 24 hrs by broth microdilution method; type: functional; conditions: ATCC 44859, 24 h
Candida albicans [28] = assay: Antifungal activity against Candida albicans ATCC 44859 after 48 hrs by broth microdilution method; type: functional; conditions: ATCC 44859, 48 h
Candida tropicalis [29] = assay: Antifungal activity against Candida tropicalis 156 after 24 hrs by broth microdilution method; type: functional; conditions: Candida tropicalis, 156, 24 h
Candida tropicalis [30] = assay: Antifungal activity against Candida tropicalis 156 after 48 hrs by broth microdilution method; type: functional; conditions: Candida tropicalis, 156, 48 h
Pichia kudriavzevii [31] = assay: Antifungal activity against Candida krusei E28 after 24 hrs by broth microdilution method; type: functional; conditions: E28, 24 h
Pichia kudriavzevii [32] = assay: Antifungal activity against Candida krusei E28 after 48 hrs by broth microdilution method; type: functional; conditions: E28, 48 h
Nakaseomyces glabratus [33] = assay: Antifungal activity against Candida glabrata 20/I after 24 hrs by broth microdilution method; type: functional
Nakaseomyces glabratus [34] = assay: Antifungal activity against Candida glabrata 20/I after 48 hrs by broth microdilution method; type: functional
Trichosporon asahii [35] = assay: Antifungal activity against Trichosporon asahii 1188 after 24 hrs by broth microdilution method; type: functional; conditions: Trichosporon asahii, 1188, 24 h
Trichosporon asahii [36] = assay: Antifungal activity against Trichosporon asahii 1188 after 48 hrs by broth microdilution method; type: functional; conditions: Trichosporon asahii, 1188, 48 h
Aspergillus fumigatus [37] = assay: Antifungal activity against Aspergillus fumigatus 231 after 24 hrs by broth microdilution method; type: functional; conditions: Aspergillus fumigatus, 231, 24 h
Aspergillus fumigatus [38] = assay: Antifungal activity against Aspergillus fumigatus 231 after 48 hrs by broth microdilution method; type: functional; conditions: Aspergillus fumigatus, 231, 48 h
Lichtheimia corymbifera [39] = assay: Antifungal activity against Absidia corymbifera 272 after 24 hrs by broth microdilution method; type: functional; conditions: Lichtheimia corymbifera, 272, 24 h
Lichtheimia corymbifera [40] = assay: Antifungal activity against Absidia corymbifera 272 after 48 hrs by broth microdilution method; type: functional; conditions: Lichtheimia corymbifera, 272, 48 h
[41] = tested on: Trichophyton mentagrophytes; assay: Antifungal activity against Trichophyton mentagrophytes 445 after 72 hrs by broth microdilution method; type: functional; conditions: Trichophyton mentagrophytes, 445, 72 h
[42] = tested on: Trichophyton mentagrophytes; assay: Antifungal activity against Trichophyton mentagrophytes 445 after 120 hrs by broth microdilution method; type: functional; conditions: Trichophyton mentagrophytes, 445, 120 h

O=[N+]([O-])c1cc(-c2nnn(Cc3cccc(Cl)c3)n2)cc([N+](=O)[O-])c1
1 µM: MIC99 (Mycobacterium kansasii [5]) | MIC99 (Mycobacterium kansasii [9])
27 µM: IC50 (CHO-K1)
4 µM: MIC99 (Mycobacterium avium [3])
> 500 µM: MIC (Staphylococcus aureus [11]) | MIC (Staphylococcus aureus [12]) | MIC (Staphylococcus aureus [13]) | MIC (Staphylococcus aureus [14]) | MIC [15] | MIC [16] | MIC (Enterococcus sp. [17]) | MIC (Enterococcus sp. [18]) | MIC (Escherichia coli [19]) | MIC (Escherichia coli [20]) | MIC (Klebsiella pneumoniae [21]) | MIC (Klebsiella pneumoniae [22]) | MIC (Klebsiella pneumoniae [23]) | MIC (Klebsiella pneumoniae [24]) | MIC (Pseudomonas aeruginosa [25]) | MIC (Pseudomonas aeruginosa [26]) | MIC (Candida albicans [27]) | MIC (Candida albicans [28]) | MIC (Candida tropicalis [29]) | MIC (Candida tropicalis [30]) | MIC (Pichia kudriavzevii [31]) | MIC (Pichia kudriavzevii [32]) | MIC (Nakaseomyces glabratus [33]) | MIC (Nakaseomyces glabratus [34]) | MIC (Trichosporon asahii [35]) | MIC (Trichosporon asahii [36]) | MIC (Aspergillus fumigatus [37]) | MIC (Aspergillus fumigatus [38]) | MIC (Lichtheimia corymbifera [39]) | MIC (Lichtheimia corymbifera [40]) | MIC [41] | MIC [42]
0.5 µM: MIC99 [1] | MIC99 [2] | MIC99 (Mycobacterium kansasii [8])
8 µM: MIC99 (Mycobacterium avium [4])
2 µM: MIC99 (Mycobacterium kansasii [6]) | MIC99 (Mycobacterium kansasii [7]) | MIC99 (Mycobacterium kansasii [10])
